According to ChEMBL document CHEMBL4613277, “Improving the Potency of N-Aryl-2,5-dimethylpyrroles against Multidrug-Resistant and Intracellular Mycobacteria” (ACS Med Chem Lett, 2020):
In brackets after ≈: the same amount, converted by molar mass.

Key:
[1] = tested on: Mycobacterium tuberculosis; test: Antimycobacterial activity against multidrug resistance Mycobacterium tuberculosis CCM11.1 assessed as reduction in bacterial growth incubated for 7 days by resazurin based assay; type: functional; details: CCM11.1, 168 h
[2] = tested on: Mycobacterium tuberculosis; test: Antimycobacterial activity against multidrug resistance Mycobacterium tuberculosis CCM10.1 assessed as reduction in bacterial growth incubated for 7 days by resazurin based assay; type: functional; details: CCM10.1, 168 h

SMILES	MIC [1] [µg/mL]	MIC [2] [ng/mL]
COc1ccc(-n2c(C)cc(CNC3CCCCC3)c2C)cc1	0.5 (≈ 1.6 µM)	< 0.625
Cc1cc(CN[C@H]2C[C@@H]3CC[C@H]2C3)c(C)n1-c1ccc(Cl)cc1	1 (≈ 3.04 µM)	2.5 (≈ 0.0076 µM)
Cc1cc(CNC2CCCCC2)c(C)n1-c1ccc(C(C)C)cc1	0.5 (≈ 1.54 µM)	1.25 (≈ 0.00385 µM)
Cc1cc(CNCC2CCCCC2)c(C)n1-c1ccc(Cl)cc1	0.12 (≈ 0.363 µM)	< 0.625
